Among the data in PubChem BioAssay (NCI) are TGI and GI50 values, retold here.

Where “and” joins values, the source holds several entries; their conditions need not be identical. Equal entries are not always repeated.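 In this assay, cells in 96-well plates receive the compound at five concentrations for 48 hours. Endpoints are linearly interpolated between the surrounding concentrations. The concentration for 50% growth inhibition is given as GI50. At the TGI there is no net growth.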

Among the test systems are MALME-3M melanoma; HOP-92 NSCLC; SNB-19 CNS; TK-10 renal; SF-268 CNS; NCI-H522 lung; SK-MEL-2 melanoma; SK-MEL-5 melanoma; SR leukemia; PC-3 prostate.
What all share (experiment): inhibition of tumour cell growth, NCI panel, 48 h

With `CC(=O)NC1C(OCc2ccccc2)OC(CO)C(O)C1OC(C)C(=O)N[C@@H](C)C(=O)N[C@H](CCC(=O)OCCNc1c2ccccc2nc2cccc([N+](=O)[O-])c12)C(N)=O` (stereo partly drawn), the TGI with MALME-3M melanoma is 0.00356 µM; in the assay on HOP-92 NSCLC, 0.00616 µM; in the assay with SNB-19 CNS, 0.00277 µM and 0.00694 µM; with TK-10 renal it was 0.0631 µM; in the assay on SF-268 CNS, 0.0343 µM; with NCI-H522 lung, 0.00669 µM. Besides, the TGI with SK-MEL-2 melanoma is 0.00414 µM; in the assay with SK-MEL-5 melanoma it was 0.00855 µM; with SR leukemia, over 0.1 µM.

For the compound `NC(=O)c1c([N+](=O)[O-])cc(C(F)(F)F)cc1[N+](=O)[O-]`, the TGI in the assay with MALME-3M melanoma was 52.1 µM; in the assay on HOP-92 NSCLC, over 100 µM; in the assay on SNB-19 CNS, over 100 µM; with TK-10 renal it was over 100 µM; with SF-268 CNS, over 100 µM; in the assay with NCI-H522 lung, over 100 µM. Also, the TGI with SK-MEL-5 melanoma and in the assay with SR leukemia was over 100 µM in each case.

Turning to `Cc1ccc(NC(=O)C2C(=O)N(c3ccc(C)c(C)c3)C(=O)/C2=N\NC(N)=O)cc1C` (stereo not drawn), the TGI in the assay with MALME-3M melanoma, in the assay on HOP-92 NSCLC, in the assay with SNB-19 CNS, in the assay with TK-10 renal, with SF-268 CNS and in the assay with NCI-H522 lung was over 100 µM each time. For the same compound, the TGI with SK-MEL-2 melanoma and with SK-MEL-5 melanoma was over 100 µM throughout.

`O=S(=O)(O)c1ccc(N=Nc2nc(C(F)(F)F)c(C(F)(F)F)[nH]2)cc1`: the TGI in the assay with MALME-3M melanoma was over 100 µM; in the assay with HOP-92 NSCLC, 31.6 µM; in the assay with SNB-19 CNS, 71.1 µM; in the assay on TK-10 renal, over 100 µM; with SF-268 CNS it was over 100 µM; with SK-MEL-2 melanoma, over 100 µM. Also, the results for the TGI with SK-MEL-5 melanoma and with SR leukemia were over 100 µM and 69.9 µM, respectively.

Regarding `Cc1noc2c1C(=O)CCC2`, the TGI with MALME-3M melanoma, in the assay with HOP-92 NSCLC, with TK-10 renal, with SF-268 CNS, with NCI-H522 lung and with SK-MEL-2 melanoma was over 100 µM throughout. In the assay on SR leukemia, this compound showed a TGI of over 100 µM.

As for `CCCCC(C)C(OC(=O)CC(CC(=O)O)C(=O)O)C(CC(C)CC(O)CCCCC(O)CC(O)C(C)N)OC(=O)CC(CC(=O)O)C(=O)O` (stereo not drawn), the TGI in the assay on MALME-3M melanoma, in the assay with HOP-92 NSCLC, in the assay on SNB-19 CNS, in the assay with TK-10 renal, in the assay with SF-268 CNS and in the assay with NCI-H522 lung was over 100 µM each time. In addition, the TGI in the assay with SK-MEL-2 melanoma, in the assay with SK-MEL-5 melanoma and with SR leukemia was over 100 µM in each case.

As to `O=C(CSc1ncn[nH]1)C[P+](c1ccccc1)(c1ccccc1)c1ccccc1`, the TGI was over 100 µM in the assay on MALME-3M melanoma; over 100 µM in the assay on HOP-92 NSCLC; over 100 µM in the assay with SNB-19 CNS; over 100 µM with TK-10 renal; over 100 µM in the assay with SF-268 CNS; 43.2 µM with NCI-H522 lung. Further, the TGI with SK-MEL-2 melanoma and with SK-MEL-5 melanoma was over 100 µM in each case.

For the compound `COc1ccccc1C1=C(Nc2ccccc2)C(=O)NC1=O`, the GI50 in the assay on MALME-3M melanoma, with SNB-19 CNS, in the assay on TK-10 renal, in the assay on SF-268 CNS, in the assay on NCI-H522 lung and in the assay on PC-3 prostate was over 25 µM each time. Also, the GI50 with SK-MEL-2 melanoma and in the assay on SK-MEL-5 melanoma was over 25 µM in each case. Moreover, the TGI in the assay on MALME-3M melanoma, with SNB-19 CNS, in the assay on TK-10 renal, in the assay on SF-268 CNS, in the assay with NCI-H522 lung and in the assay with PC-3 prostate was over 25 µM throughout. The TGI in the assay on SK-MEL-2 melanoma and in the assay with SK-MEL-5 melanoma was over 25 µM throughout.

Regarding `C#CC[N+](C)(CC#C)CC#C`, the TGI in the assay with MALME-3M melanoma, in the assay with HOP-92 NSCLC, in the assay with SNB-19 CNS, in the assay on TK-10 renal, in the assay on SF-268 CNS and in the assay with NCI-H522 lung was over 100 µM in each case. Moreover, the TGI in the assay with SK-MEL-2 melanoma and in the assay on SK-MEL-5 melanoma was over 100 µM in each case.

Take `Cc1cccc(C(C)C)c1N1C(=O)C(=O)C(c2nc3ccccc3o2)C(=O)C1=O`: the TGI in the assay with MALME-3M melanoma was over 100 µM; in the assay on HOP-92 NSCLC it was over 100 µM; with SNB-19 CNS, over 100 µM; in the assay with TK-10 renal it was over 100 µM; with SF-268 CNS it was over 100 µM; in the assay with NCI-H522 lung, 89.5 µM. Also, the TGI with SK-MEL-2 melanoma, in the assay on SK-MEL-5 melanoma and with SR leukemia was over 100 µM each time.

For the compound `NC(=O)c1ccccc1NC(=O)C(=O)Cc1nc2ccccc2[nH]c1=O`, the TGI with MALME-3M melanoma, in the assay with HOP-92 NSCLC, in the assay on SNB-19 CNS, in the assay with TK-10 renal, with SF-268 CNS and with NCI-H522 lung was over 100 µM each time. For the same compound, the TGI in the assay with SK-MEL-2 melanoma and in the assay with SK-MEL-5 melanoma was over 100 µM in each case.

Regarding `O=[N+]([O-])c1ccc(-c2noc(-c3ccc(Cl)cc3)c2C2=NCCN2)cc1`, the TGI in the assay with MALME-3M melanoma, in the assay on SNB-19 CNS, with SF-268 CNS, with NCI-H522 lung, in the assay with SK-MEL-2 melanoma and in the assay with SK-MEL-5 melanoma was over 100 µM each time. The compound also registered a TGI in the assay with SR leukemia of over 100 µM.

`CN(C)C(=Nc1nc(=[N+](C)C)ss1)N(C)C`: the TGI with HOP-92 NSCLC, with SNB-19 CNS, in the assay with TK-10 renal, in the assay on SF-268 CNS, with NCI-H522 lung and in the assay on SK-MEL-2 melanoma was over 100 µM throughout. Further, in the assay on SK-MEL-5 melanoma, the TGI is over 100 µM.

For the compound `O=C(CC1(O)C(=O)Nc2ccc(Br)cc21)c1ccc(Cl)cc1Cl` (stereo not drawn), the TGI with MALME-3M melanoma was over 100 µM; in the assay on SNB-19 CNS it was over 100 µM; with TK-10 renal it was over 100 µM; in the assay on SF-268 CNS it was over 100 µM; in the assay on NCI-H522 lung, 70.5 µM; with SK-MEL-2 melanoma, over 100 µM. The compound also showed a TGI with SR leukemia of 50.7 µM.

Take `O=[N+]([O-])c1ccc(Cl)c(C2CC(c3cccc4ccccc34)=Nc3ccccc3S2)c1` (stereo not drawn): the TGI in the assay with MALME-3M melanoma is over 100 µM; in the assay with HOP-92 NSCLC, 49.8 µM; in the assay on SNB-19 CNS it was over 100 µM; in the assay with TK-10 renal, over 100 µM; with SF-268 CNS, over 92.1 µM; with NCI-H522 lung, 43.9 µM. For the same compound, the results for the TGI with SK-MEL-2 melanoma, with SK-MEL-5 melanoma and with SR leukemia were 62.8 µM, over 31.6 µM and 68.9 µM, respectively.
